Tests used:
Test in all cases: relative viability (nuclei count vs DMSO), 5 days (fraction); higher = more cells survive
[1] = compound: Cn1cc(-c2cnn3c(N)c(Br)c([C@@H]4CCCNC4)nc23)cn1 + CS(=O)(=O)CCNCc1ccc(-c2ccc3ncnc(Nc4ccc(OCc5cccc(F)c5)c(Cl)c4)c3c2)o1 [Lapatinib] (partner 2 µM)
How it was run: (§1)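 Relative viability equals treated-well nuclei counts divided by vehicle-well nuclei counts. Counts came from 4× images of lung cancer cell lines grown in 1536-well plates for 5 days after pin-tool dosing on the day after seeding. Dosing used one drug alone or a fixed anchor-drug dose plus five library-drug doses (not always all listed) in √10 steps, and values are medians of duplicate plates.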

[2] = compound: Cn1cc(-c2cnn3c(N)c(Br)c([C@@H]4CCCNC4)nc23)cn1 + C[C@@H](Oc1cc(-c2cnn(C3CCNCC3)c2)cnc1N)c1c(Cl)ccc(F)c1Cl [Crizotinib] (partner 1 µM)
How it was run: as §1

[3] = compound: Cn1cc(-c2cnn3c(N)c(Br)c([C@@H]4CCCNC4)nc23)cn1 + Cc1cc(Nc2cc(N3CCN(C)CC3)nc(Sc3ccc(NC(=O)C4CC4)cc3)n2)n[nH]1 [Tozasertib] (partner 0.1 µM)
How it was run: as §1

[4] = compound: Cn1cc(-c2cnn3c(N)c(Br)c([C@@H]4CCCNC4)nc23)cn1 + Nc1ncn([C@H]2C[C@H](O)[C@@H](CO)O2)c(=O)n1 [Decitabine] (partner 2 µM)
How it was run: as §1

| Cell Line | relative viability ([1]; first compound 0.05 µM) | relative viability ([1]; first compound 0.1581 µM) | relative viability ([1]; first compound 0.5 µM) | relative viability ([1]; first compound 1.581 µM) | relative viability ([1]; first compound 5 µM) | relative viability ([2]; first compound 0.05 µM) | relative viability ([2]; first compound 0.1581 µM) | relative viability ([2]; first compound 0.5 µM) | relative viability ([2]; first compound 1.581 µM) | relative viability ([2]; first compound 5 µM) | relative viability ([3]; first compound 0.05 µM) | relative viability ([3]; first compound 0.1581 µM) | relative viability ([3]; first compound 0.5 µM) | relative viability ([3]; first compound 1.581 µM) | relative viability ([3]; first compound 5 µM) | relative viability ([4]; first compound 0.05 µM) | relative viability ([4]; first compound 0.1581 µM) | relative viability ([4]; first compound 0.5 µM) | relative viability ([4]; first compound 1.581 µM) | relative viability ([4]; first compound 5 µM) |
| --- | --- | --- | --- | --- | --- | --- | --- | --- | --- | --- | --- | --- | --- | --- | --- | --- | --- | --- | --- | --- |
| PC-14 | 0.322 | 0.366 | 0.363 | 0.332 | 0.257 | 0.95 | 1.06 | 1.01 | 0.83 | 0.386 | 0.634 | 0.458 | 0.594 | 0.438 | 0.274 | 0.237 | 0.2 | 0.206 | 0.186 | 0.123 |
| RERF-LC-KJ | 0.917 | 0.966 | 0.862 | 0.828 | 0.771 | 0.828 | 0.958 | 0.775 | 0.788 | 0.8 | 0.52 | 0.502 | 0.501 | 0.346 | 0.384 | 0.822 | 0.85 | 0.636 | 0.549 | 0.628 |
| SK-LU-1 | 0.871 | 0.585 | 0.758 | 0.321 | 0.19 | 0.877 |  | 0.483 | 0.33 | 0.264 | 0.35 | 0.193 | 0.192 | 0.201 | 0.169 | 0.788 | 0.586 | 0.537 | 0.363 | 0.255 |
| SK-MES-1 | 0.491 | 0.544 | 0.514 | 0.392 | 0.431 | 1.07 | 1.11 | 0.918 | 0.934 | 0.366 | 0.987 | 0.675 | 0.57 | 0.268 | 0.137 | 0.356 | 0.413 | 0.336 | 0.355 | 0.204 |
| SW 1573 | 1.14 | 1.22 | 1.15 | 1.01 | 1.1 | 0.794 | 1.07 | 0.9 | 0.747 | 0.73 | 0.175 | 0.175 | 0.17 | 0.176 | 0.149 | 0.567 | 0.498 | 0.455 | 0.462 | 0.517 |
| UMC-11 | 1.09 | 1 | 0.699 | 0.624 | 0.463 | 0.736 | 0.504 | 0.623 | 0.392 | 0.262 | 0.276 | 0.204 | 0.217 | 0.205 | 0.187 | 0.692 | 0.536 | 0.689 | 0.492 | 0.373 |

— the supplement of paper PMC10307832
